Test [1] addresses T1, 1-phosphatidylinositol 3-phosphate 5-kinase (Homo sapiens, UniProt Q9Y2I7). Briefly: Binding affinity to N-terminal His-tagged human PIKfyve expressed in Sf9 cells assessed as dissociation constant.
Test [2] concerns SARS-CoV-2. Briefly: Antiviral activity against SARS-CoV-2 WA1/2020 infected in human Calu-3 cells preincubated for 2 hrs followed by viral infection and measured after 48 hrs by microscopy analysis. The test is classed as functional, organism-based. The conditions noted are these: Severe acute respiratory syndrome coronavirus 2, WA1/2020, Calu-3.
Test [3] concerns SARS-CoV-2. Put plainly: Antiviral activity against VSV-S pseudotyped SARS-CoV-2 infected in human Calu-3 cells assessed as inhibition of viral growth. The conditions noted are these: Severe acute respiratory syndrome coronavirus 2, Calu-3. Format: functional, organism-based.
Test [4] concerns SARS-CoV-2. Put plainly: microbe, parasite or virus in culture. As to conditions: Severe acute respiratory syndrome coronavirus 2, Vero C1008, 24 h.
In another test the test system is RAW264.7. Put plainly: Antiinflammatory activity in mouse RAW264.7 cells assessed as effect on LPS induced IL-12p40 level measured after 24 hrs by RT-qPCR analysis. The test is classed as functional, cell-based. The conditions noted are these: RAW264.7, 24 h. On the technique in general: Quantitative PCR measures a nucleic acid by following its amplification.
In test [5] the test system is SARS-CoV-2. Format: functional, organism-based. The conditions noted are these: Severe acute respiratory syndrome coronavirus 2, NRC-03-nhCoV, Vero C1008, 72 h.
Test [6] has as its system SARS-CoV-2. The test is classed as functional, organism-based. As to conditions: Severe acute respiratory syndrome coronavirus 2, Huh-7.
The next test concerns the target Procathepsin L (Homo sapiens, UniProt P07711). Put plainly: Inhibition of Cathepsin L (unknown origin).
In test [7] the test system is SARS-CoV-2. The test is classed as functional, organism-based. As to conditions: Severe acute respiratory syndrome coronavirus 2, Huh-7. The source holds these as a separate data set.
Test [8] has as its system SARS-CoV-2. The test is classed as functional, organism-based. The conditions noted are these: Severe acute respiratory syndrome coronavirus 2, Omicron B.1.617.2 delta, 293T/ACE2, 48 h.
Test [9] relates to SARS-CoV-2. Briefly: Antiviral activity against SARS-CoV-2 USA-WA1/2020 infected in african green monkey Vero C1008 cells assessed as reduction in viral replication by qRT-PCR analysis. The test is classed as functional, organism-based. The conditions noted are these: Severe acute respiratory syndrome coronavirus 2, USA-WA1/2020, Vero C1008.
Test [10] deals with SARS-CoV-2. Put plainly: Antiviral activity against SARS-CoV-2 USA-WA1/2020 infected in human Calu-3 cells assessed as reduction in viral replication by qRT-PCR analysis. Format: functional, organism-based. As to conditions: Severe acute respiratory syndrome coronavirus 2, USA-WA1/2020, Calu-3.
In test [11] the test system is SARS-CoV-2. Format: functional, organism-based. The conditions noted are these: Severe acute respiratory syndrome coronavirus 2, USA-WA1/2020, Huh-7.
Test [12] has as its target T1, 1-phosphatidylinositol 3-phosphate 5-kinase. Put plainly: Inhibition of PIKfyve (unknown origin).
Test [13] relates to SARS-CoV-2. The test is classed as functional, organism-based. The conditions noted are these: Severe acute respiratory syndrome coronavirus 2, Vero C1008, 48 h.
Test [14] relates to SARS-CoV-2. Put plainly: microbe, parasite or virus in culture. As to conditions: Severe acute respiratory syndrome coronavirus 2, Huh-7.
Test [15] relates to SARS-CoV-2. Format: functional, organism-based. The conditions noted are these: Severe acute respiratory syndrome coronavirus 2, NRC-03-nhCoV, Vero C1008.
For test [16], the system named is Respiratory syncytial virus. Put plainly: microbe, parasite or virus in culture. The conditions noted are these: human respiratory syncytial virus, A2, HEp-2.
Test [17] has as its system SARS-CoV-2. Format: functional, organism-based. The conditions noted are these: Severe acute respiratory syndrome coronavirus 2, Vero C1008.
In test [18] the target is Spike glycoprotein/Angiotensin-converting enzyme 2 (Severe acute respiratory syndrome coronavirus 2, UniProt P0DTC2+Q9BYF1). Put plainly: Inhibition of SARS-CoV-2 spike protein RBD- human ACE2 interaction. Format: protein assay.
Spike glycoprotein/Angiotensin-converting enzyme 2, sequence (Q9BYF1 18-805 limits assumed, other chains not shown): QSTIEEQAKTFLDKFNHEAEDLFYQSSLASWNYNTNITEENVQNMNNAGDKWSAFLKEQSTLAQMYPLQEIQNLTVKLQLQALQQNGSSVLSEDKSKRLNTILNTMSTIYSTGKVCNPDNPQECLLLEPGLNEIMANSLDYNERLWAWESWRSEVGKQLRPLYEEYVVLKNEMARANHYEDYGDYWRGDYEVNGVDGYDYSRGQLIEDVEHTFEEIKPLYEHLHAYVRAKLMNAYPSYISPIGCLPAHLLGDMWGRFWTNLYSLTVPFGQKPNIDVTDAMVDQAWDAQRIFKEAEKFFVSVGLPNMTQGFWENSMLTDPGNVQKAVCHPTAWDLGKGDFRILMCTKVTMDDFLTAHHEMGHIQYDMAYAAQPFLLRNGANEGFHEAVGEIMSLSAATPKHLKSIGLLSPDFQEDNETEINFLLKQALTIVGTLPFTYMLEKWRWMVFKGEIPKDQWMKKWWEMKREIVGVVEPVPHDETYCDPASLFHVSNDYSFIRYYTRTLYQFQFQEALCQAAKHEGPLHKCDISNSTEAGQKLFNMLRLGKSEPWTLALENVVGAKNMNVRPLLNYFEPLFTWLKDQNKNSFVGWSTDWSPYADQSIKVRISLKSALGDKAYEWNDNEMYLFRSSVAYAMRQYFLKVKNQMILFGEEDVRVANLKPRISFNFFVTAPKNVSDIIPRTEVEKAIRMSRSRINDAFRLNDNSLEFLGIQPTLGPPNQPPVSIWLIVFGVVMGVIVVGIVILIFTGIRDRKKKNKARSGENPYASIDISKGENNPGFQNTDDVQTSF
Test [19] concerns SARS-CoV-2. The test is classed as functional, organism-based. As to conditions: Severe acute respiratory syndrome coronavirus 2, Vero C1008, 48 h. The source holds these as a separate data set.

The structures appear in SMILES notation. pEC50, pIC50, pKd: −log10 of the molar value. *1 amine or outer side, *2 acyl side, *3 side chain or, on linkers, in order; H or OH if unused. Where a SMILES comes first, the peptide text is derived from it. [ ]: non-standard residue; d: D form. The star is where a group is joined. X1 = N=C(N)NCCC[C@H](N[*:1])C(=O)c1nc2ccc(C(=O)[*:2])cc2s1; Cbz = O=C(OCc1ccccc1)*

T1 sequence (Q9Y2I7 whole entry): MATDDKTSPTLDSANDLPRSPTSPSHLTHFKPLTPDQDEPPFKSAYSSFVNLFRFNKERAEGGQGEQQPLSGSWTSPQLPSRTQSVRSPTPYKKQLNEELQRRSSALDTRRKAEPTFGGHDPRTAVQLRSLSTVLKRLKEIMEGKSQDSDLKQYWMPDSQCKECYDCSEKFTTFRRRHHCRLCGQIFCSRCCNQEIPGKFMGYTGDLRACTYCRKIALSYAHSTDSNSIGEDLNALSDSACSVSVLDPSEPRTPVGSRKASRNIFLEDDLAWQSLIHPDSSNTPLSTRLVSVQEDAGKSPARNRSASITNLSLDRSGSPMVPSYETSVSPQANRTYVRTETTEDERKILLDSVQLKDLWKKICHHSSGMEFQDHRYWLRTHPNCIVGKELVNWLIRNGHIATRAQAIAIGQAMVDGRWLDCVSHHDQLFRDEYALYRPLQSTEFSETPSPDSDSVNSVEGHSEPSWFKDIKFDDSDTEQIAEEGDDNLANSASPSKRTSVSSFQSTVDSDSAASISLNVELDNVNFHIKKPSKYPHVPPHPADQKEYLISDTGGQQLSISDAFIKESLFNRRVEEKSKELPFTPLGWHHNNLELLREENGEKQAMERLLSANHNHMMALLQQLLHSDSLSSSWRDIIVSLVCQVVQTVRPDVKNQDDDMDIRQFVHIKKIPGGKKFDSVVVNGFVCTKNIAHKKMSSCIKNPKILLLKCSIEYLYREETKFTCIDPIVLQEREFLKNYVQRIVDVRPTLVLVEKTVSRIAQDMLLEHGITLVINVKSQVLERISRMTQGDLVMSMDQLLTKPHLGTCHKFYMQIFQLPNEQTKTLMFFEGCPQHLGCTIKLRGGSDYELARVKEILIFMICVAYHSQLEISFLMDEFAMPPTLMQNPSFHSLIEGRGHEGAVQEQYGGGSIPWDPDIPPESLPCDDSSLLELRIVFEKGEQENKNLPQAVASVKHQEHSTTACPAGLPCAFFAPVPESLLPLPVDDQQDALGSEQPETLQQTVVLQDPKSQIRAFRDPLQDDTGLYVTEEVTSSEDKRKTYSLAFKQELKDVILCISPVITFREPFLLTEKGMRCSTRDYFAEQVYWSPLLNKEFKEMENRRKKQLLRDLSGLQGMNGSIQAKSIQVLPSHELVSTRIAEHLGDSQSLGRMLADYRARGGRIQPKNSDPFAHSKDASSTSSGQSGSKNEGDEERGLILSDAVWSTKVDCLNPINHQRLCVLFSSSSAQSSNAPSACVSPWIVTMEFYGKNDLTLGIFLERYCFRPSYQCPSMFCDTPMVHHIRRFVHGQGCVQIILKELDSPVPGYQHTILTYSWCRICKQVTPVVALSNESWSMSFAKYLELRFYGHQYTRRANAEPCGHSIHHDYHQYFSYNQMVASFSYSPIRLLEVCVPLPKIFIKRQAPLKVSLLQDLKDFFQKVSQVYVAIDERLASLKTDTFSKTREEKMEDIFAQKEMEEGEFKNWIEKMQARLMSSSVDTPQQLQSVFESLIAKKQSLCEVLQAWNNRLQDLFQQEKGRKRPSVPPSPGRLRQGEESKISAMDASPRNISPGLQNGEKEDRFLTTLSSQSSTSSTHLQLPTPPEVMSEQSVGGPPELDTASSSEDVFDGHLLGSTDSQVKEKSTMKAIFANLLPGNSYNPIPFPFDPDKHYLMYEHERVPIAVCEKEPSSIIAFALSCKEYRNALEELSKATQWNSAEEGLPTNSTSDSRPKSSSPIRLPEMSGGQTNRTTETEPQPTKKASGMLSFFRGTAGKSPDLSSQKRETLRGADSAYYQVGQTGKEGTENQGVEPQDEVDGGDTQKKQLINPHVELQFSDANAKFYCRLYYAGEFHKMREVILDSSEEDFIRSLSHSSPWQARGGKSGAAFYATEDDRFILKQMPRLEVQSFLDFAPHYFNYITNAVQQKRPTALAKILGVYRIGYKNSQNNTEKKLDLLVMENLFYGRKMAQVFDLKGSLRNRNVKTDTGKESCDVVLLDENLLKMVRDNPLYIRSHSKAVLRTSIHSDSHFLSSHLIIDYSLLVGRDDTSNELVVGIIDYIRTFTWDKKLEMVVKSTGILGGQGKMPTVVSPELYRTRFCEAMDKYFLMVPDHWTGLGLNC
Procathepsin L, sequence (P07711 whole entry): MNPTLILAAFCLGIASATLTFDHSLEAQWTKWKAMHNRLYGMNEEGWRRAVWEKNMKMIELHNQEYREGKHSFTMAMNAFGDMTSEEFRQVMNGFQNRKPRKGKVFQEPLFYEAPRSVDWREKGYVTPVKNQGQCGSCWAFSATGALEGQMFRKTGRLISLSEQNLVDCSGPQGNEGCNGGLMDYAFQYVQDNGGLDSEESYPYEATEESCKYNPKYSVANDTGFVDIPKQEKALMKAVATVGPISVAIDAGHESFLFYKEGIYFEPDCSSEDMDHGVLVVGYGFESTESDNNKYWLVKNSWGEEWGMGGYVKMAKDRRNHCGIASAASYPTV

By pKd is commonly meant the negative decadic logarithm of the Kd, by convention in mol/L. With `C1=Nc2ccccc2/C1=C\NNc1nc(Nc2ccccc2)nc(N2CCOCC2)n1`, the negative-log Kd (pKd) in test [1] was 9.04.

A word on the pIC50: it is the negative decadic logarithm of the IC50, by convention in mol/L. In general, pEC50 refers to the EC50 on a negative log10 scale, so that one unit is a factor of ten. As for `CC(=O)NCC(=O)N[C@@H](CCC(N)=O)C(=O)N[C@@H](Cc1ccccc1)C(=O)N[C@@H](CCCNC(=N)N)C(=O)c1nc2ccccc2s1`, the pIC50 with SARS-CoV-2 [2] is 7.13. The pEC50 in the test with SARS-CoV-2 [3] was 9.37.

Molecule `O=C(N[C@H](/C=C/S(=O)(=O)c1ccccc1)CCc1ccccc1)[C@H](Cc1ccccc1)NC(=O)N1CCNCC1` had a pEC50 with SARS-CoV-2 [4] of 7.46.

`Cc1ncc(-c2ccc(C3=CCN(C(C)C)CC3)nc2)cc1NC(=O)c1ccc2[nH]c(C)c(C)c2n1`: the pIC50 in the test on RAW264.7 was 8.70.

In the test with SARS-CoV-2 [5], `N=C(N/N=C/c1ccncc1)c1nonc1NCNc1nonc1C(=N)N/N=C/c1ccncc1` had a pIC50 of 7.80.

`CCOC(=O)[C@H]1O[C@@H]1C(=O)N[C@@H](CC(C)C)C(=O)NCCC(C)C` [ALOXISTATIN]: in the test with SARS-CoV-2 [4], the pEC50 was 6.57.

For the molecule `CC(C)C[C@@H](C=O)NC(=O)[C@H](CC(C)C)NC(=O)[C@H](CC(C)C)NC(=O)OCc1ccccc1` [MG-132] (Cbz-Leu-Leu-Leu-aldehyde), the pEC50 with SARS-CoV-2 [6] was 6.67; in the test with SARS-CoV-2 [7], 6.68. Besides, the pIC50 against Procathepsin L was 7.91.

As to `N=C(N)NCCCCC(=O)Nc1cc(C(F)(F)F)cc(NC(=O)c2cc(C(=O)Nc3cc(C(F)(F)F)cc(NC(=O)CCCCNC(=N)N)c3O[C@@H]3CCNC3)ncn2)c1O[C@@H]1CCNC1` [BRILACIDIN], the pIC50 with SARS-CoV-2 [8], in the test on SARS-CoV-2 [9], in the test on SARS-CoV-2 [10] and in the test with SARS-CoV-2 [11] was 4.92 in each case.

In the case of `CS(=O)(=O)N[C@@H](CCC(N)=O)C(=O)N[C@@H](Cc1ccccc1)C(=O)N[C@@H](CCCNC(=N)N)C(=O)c1nc2ccccc2s1`, the pEC50 in the test on SARS-CoV-2 [3] was 8.55.

In the case of `CN(C)Cc1ccc2[nH]c3c(c2c1)Cc1nc(N)ncc1CC3`, the figures for the pIC50 (in test [12]; in the test with SARS-CoV-2 [13]) were 8.16 and 7.71, respectively.

In the test with SARS-CoV-2 [2], `CC(=O)N1CCC[C@H]1C(=O)N[C@@H](CCC(N)=O)C(=O)N[C@@H](Cc1ccccc1)C(=O)N[C@@H](CCCNC(=N)N)C(=O)c1nc2ccccc2s1` had a pIC50 of 6.98. The pEC50 with SARS-CoV-2 [3] was 9.07.

`C[C@H](NC(=O)[C@H](Cc1ccccc1)NC(=O)OCc1ccccc1)C(=O)CF`: the figures for the pEC50 with SARS-CoV-2 [6] and in the test on SARS-CoV-2 [14] were 5.02 and 3.15, respectively.

The molecule `CC(C)(C)OC(=O)N[C@@H](Cc1c[nH]c2ccccc12)C(=O)NNC(=O)OCC(=O)N1CCCc2ccccc21` had a pEC50 in the test with SARS-CoV-2 [4] of 4.96.

`O=C[C@H](Cc1ccc(O)cc1)NC(=O)[C@H](Cc1ccccc1)NC(=O)OCc1ccccc1` (Cbz-Phe-Tyr-aldehyde) showed a negative-log EC50 (pEC50) with SARS-CoV-2 [4] of 6.21.

As to `CCC[C@H](NC(=O)[C@@H]1[C@H]2CCC[C@H]2CN1C(=O)[C@@H](NC(=O)[C@@H](NC(=O)c1cnccn1)C1CCCCC1)C(C)(C)C)C(=O)C(=O)NC1CC1`, in the test with SARS-CoV-2 [15], the negative-log IC50 (pIC50) is 4.94.

For the molecule `CC(=O)N[C@@H](CO)C(=O)N[C@@H](CCCCN)C(=O)N[C@@H](CC(C)C)C(=O)N[C@@H](CCCNC(=N)N)C(=O)c1nc2ccccc2s1`, in the test with SARS-CoV-2 [3], the negative logarithm of the EC50 (pEC50) is 5.37.

A word on the IC50: it is the concentration that gives 50% inhibition. As a reminder, the EC50 is the concentration that produces a half-maximal response. With `CC(C)CCC[C@@H](C)[C@H]1CC[C@H]2[C@@H]3CC[C@H]4C[C@@H](O[C@@H]5O[C@H](COS(=O)(=O)[O-])[C@@H](O[C@H]6O[C@H](COS(=O)(=O)[O-])[C@@H](O[C@H]7O[C@H](COS(=O)(=O)[O-])[C@@H](O[C@H]8O[C@H](COS(=O)(=O)[O-])[C@@H](OS(=O)(=O)[O-])[C@H](OS(=O)(=O)[O-])[C@H]8OS(=O)(=O)[O-])[C@H](OS(=O)(=O)[O-])[C@H]7OS(=O)(=O)[O-])[C@H](OS(=O)(=O)[O-])[C@H]6OS(=O)(=O)[O-])[C@H](OS(=O)(=O)[O-])[C@H]5OS(=O)(=O)[O-])CC[C@]4(C)[C@H]3CC[C@]12C.[Na+].[Na+].[Na+].[Na+].[Na+].[Na+].[Na+].[Na+].[Na+].[Na+].[Na+].[Na+].[Na+]`, the half-maximal inhibitory concentration (IC50) in test [16] is 9.9 µg/mL. In the test with SARS-CoV-2 [17], the concentration for a half-maximal effect (EC50) stood at 0.9 µg/mL. Moreover, the pIC50 in test [18] is 5.37.

In the case of `CC(=O)N[C@@H](CO)C(=O)N[C@@H](CCCCN)C(=O)N[C@@H](CC(C)C)C(=O)N[C@@H](CCCNC(=N)N)C(=O)c1nc2ccc(C(=O)N[C@H](C(N)=O)C(C)C)cc2s1` (Ac-SKL[X1]V-NH2), the values for the pEC50 with SARS-CoV-2 [19] and in the test on SARS-CoV-2 [3] were 6.51 and 6.31, respectively.

`CC(=O)N[C@@H](CCC(N)=O)C(=O)N[C@@H](Cc1ccccc1)C(=O)N[C@@H](CCCNC(=N)N)C(=O)c1nc2ccccc2s1`: in the test with SARS-CoV-2 [2], the pIC50 is 7.28. For the same molecule, the pEC50 with SARS-CoV-2 [3] was 9.28.

The values are drawn from ChEMBL document CHEMBL5505952, “Targeting SARS-CoV-2 entry processes: The promising potential and future of host-targeted small-molecule inhibitors” (Eur J Med Chem, 2024).
